Assay: xn = mol fraction of the nth substance listed
Conditions: 101.33 kPa, Liquid

C=Cc1ccccc1 [styrene] + CCCCCCCC
Conditions | mass density [kg/m3] | viscosity [mPa·s]
293.15 K, x1 = 0.1085 | 719.52 | 0.537
293.15 K, x1 = 0.2151 | 736.18 | 0.537
293.15 K, x1 = 0.3202 | 753.7 | 0.541
293.15 K, x1 = 0.4223 | 772.01 | 0.551
293.15 K, x1 = 0.523 | 791.51 | 0.565
293.15 K, x1 = 0.622 | 812.07 | 0.593
293.15 K, x1 = 0.7189 | 833.64 | 0.619
293.15 K, x1 = 0.8145 | 856.59 | 0.649
293.15 K, x1 = 0.9081 | 880.84 | 0.694
293.15 K, x1 = 1 | 906.29 | 0.749
298.15 K, x1 = 0.1085 | 715.45 | 0.502
298.15 K, x1 = 0.2151 | 732.06 | 0.508
298.15 K, x1 = 0.3202 | 749.53 | 0.51
298.15 K, x1 = 0.4223 | 767.81 | 0.518
298.15 K, x1 = 0.523 | 787.27 | 0.533
298.15 K, x1 = 0.622 | 807.78 | 0.56
298.15 K, x1 = 0.7189 | 829.3 | 0.576
298.15 K, x1 = 0.8145 | 852.22 | 0.608
298.15 K, x1 = 0.9081 | 876.43 | 0.647
298.15 K, x1 = 1 | 901.86 | 0.699
303.15 K, x1 = 0.1085 | 711.38 | 0.475
303.15 K, x1 = 0.2151 | 727.94 | 0.477
303.15 K, x1 = 0.3202 | 745.38 | 0.48
303.15 K, x1 = 0.4223 | 763.63 | 0.489
303.15 K, x1 = 0.523 | 783.03 | 0.503
303.15 K, x1 = 0.622 | 803.5 | 0.527
303.15 K, x1 = 0.7189 | 824.98 | 0.544
303.15 K, x1 = 0.8145 | 847.87 | 0.571
303.15 K, x1 = 0.9081 | 872.03 | 0.609
303.15 K, x1 = 1 | 897.45 | 0.654
313.15 K, x1 = 0.1085 | 703.13 | 0.423
313.15 K, x1 = 0.2151 | 719.6 | 0.427
313.15 K, x1 = 0.3202 | 737 | 0.431
313.15 K, x1 = 0.4223 | 755.16 | 0.439
313.15 K, x1 = 0.523 | 774.46 | 0.451
313.15 K, x1 = 0.622 | 794.86 | 0.48
313.15 K, x1 = 0.7189 | 816.28 | 0.486
313.15 K, x1 = 0.8145 | 839.09 | 0.511
313.15 K, x1 = 0.9081 | 863.15 | 0.541
313.15 K, x1 = 1 | 888.53 | 0.577
323.15 K, x1 = 0.1085 | 694.84 | 0.381
323.15 K, x1 = 0.2151 | 711.23 | 0.385
323.15 K, x1 = 0.3202 | 728.58 | 0.388
323.15 K, x1 = 0.4223 | 746.66 | 0.396
323.15 K, x1 = 0.523 | 765.88 | 0.406
323.15 K, x1 = 0.622 | 786.22 | 0.427
323.15 K, x1 = 0.7189 | 807.56 | 0.437
323.15 K, x1 = 0.8145 | 830.31 | 0.46
323.15 K, x1 = 0.9081 | 854.31 | 0.484
323.15 K, x1 = 1 | 879.62 | 0.513
333.15 K, x1 = 0.1085 | 686.43 | 0.351
333.15 K, x1 = 0.2151 | 702.74 | 0.351
333.15 K, x1 = 0.3202 | 720.06 | 0.352
333.15 K, x1 = 0.4223 | 738.07 | 0.359
333.15 K, x1 = 0.523 | 757.21 | 0.368
333.15 K, x1 = 0.622 | 777.49 | 0.387
333.15 K, x1 = 0.7189 | 798.77 | 0.395
333.15 K, x1 = 0.8145 | 821.46 | 0.413
333.15 K, x1 = 0.9081 | 845.37 | 0.438
333.15 K, x1 = 1 | 870.64 | 0.462
343.15 K, x1 = 0.1085 | 677.99 | 0.321
343.15 K, x1 = 0.2151 | 694.24 | 0.325
343.15 K, x1 = 0.3202 | 711.51 | 0.322
343.15 K, x1 = 0.4223 | 729.46 | 0.328
343.15 K, x1 = 0.523 | 748.55 | 0.337
343.15 K, x1 = 0.622 | 768.75 | 0.355
343.15 K, x1 = 0.7189 | 789.97 | 0.362
343.15 K, x1 = 0.8145 | 812.63 | 0.376
343.15 K, x1 = 0.9081 | 836.5 | 0.398
343.15 K, x1 = 1 | 861.72 | 0.419
353.15 K, x1 = 0.1085 | 669.39 | 0.293
353.15 K, x1 = 0.2151 | 685.6 | 0.295
353.15 K, x1 = 0.3202 | 702.81 | 0.295
353.15 K, x1 = 0.4223 | 720.71 | 0.301
353.15 K, x1 = 0.523 | 739.76 | 0.308
353.15 K, x1 = 0.622 | 759.93 | 0.322
353.15 K, x1 = 0.7189 | 781.11 | 0.333
353.15 K, x1 = 0.8145 | 803.68 | 0.349
353.15 K, x1 = 0.9081 | 827.51 | 0.362
353.15 K, x1 = 1 | 852.68 | 0.381
363.15 K, x1 = 0.1085 | 660.98 | 0.27
363.15 K, x1 = 0.2151 | 677.15 | 0.268
363.15 K, x1 = 0.3202 | 694.32 | 0.273
363.15 K, x1 = 0.4223 | 712.19 | 0.277
363.15 K, x1 = 0.523 | 731.2 | 0.285
363.15 K, x1 = 0.622 | 751.34 | 0.294
363.15 K, x1 = 0.7189 | 772.48 | 0.304
363.15 K, x1 = 0.8145 | 795.04 | 0.318
363.15 K, x1 = 0.9081 | 818.82 | 0.333
363.15 K, x1 = 1 | 843.99 | 0.349

Source: the NIST ThermoML archive (doi:10.1021/je049572f)
